Measured values published in paper PMC4367188 (ACS Chemical Neuroscience, 2015).
Converted amounts (≈) assume the structure as drawn.

Assays:
Adenosine A2A = Adenosine A2A (Homo sapiens, UniProt P29274); assay: Lead Profiling Screen radioligand binding
[1] = brain tissue distribution in Sprague-Dawley rats; type: in vivo; settings: male, rat, brain/plasma, iv, 1 mg/kg
Endothelin ETA = Endothelin ETA (Homo sapiens, UniProt P25101); assay: Lead Profiling Screen radioligand binding
PBS solubility = type: physicochemical; settings: aqueous buffer
Sigma σ1 = Sigma σ1 (Homo sapiens, UniProt Q99720); assay: Lead Profiling Screen radioligand binding
Sigma σ1, sequence (Q99720 whole entry): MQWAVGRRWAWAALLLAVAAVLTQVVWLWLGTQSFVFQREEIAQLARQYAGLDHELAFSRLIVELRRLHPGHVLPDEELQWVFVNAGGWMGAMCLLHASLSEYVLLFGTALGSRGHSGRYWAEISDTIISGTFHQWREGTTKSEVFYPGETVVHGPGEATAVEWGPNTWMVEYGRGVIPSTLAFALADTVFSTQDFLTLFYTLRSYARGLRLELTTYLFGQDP

Glutamate, NMDA, Agonism = assay: Lead Profiling Screen radioligand binding; settings: 10 μM ML352

Adenosine A2A, sequence (P29274 whole entry): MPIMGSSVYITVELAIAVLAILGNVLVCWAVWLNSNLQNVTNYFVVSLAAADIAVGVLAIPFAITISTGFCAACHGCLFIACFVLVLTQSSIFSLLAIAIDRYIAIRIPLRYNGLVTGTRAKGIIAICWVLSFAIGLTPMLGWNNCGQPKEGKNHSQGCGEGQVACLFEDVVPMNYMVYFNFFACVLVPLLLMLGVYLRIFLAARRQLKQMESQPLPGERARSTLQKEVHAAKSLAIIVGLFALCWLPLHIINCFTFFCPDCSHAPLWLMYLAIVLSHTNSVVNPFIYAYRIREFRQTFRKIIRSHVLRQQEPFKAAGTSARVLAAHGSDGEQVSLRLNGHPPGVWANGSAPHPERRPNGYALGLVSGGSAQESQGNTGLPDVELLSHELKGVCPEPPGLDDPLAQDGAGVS
Endothelin ETA, sequence (P25101 21-427): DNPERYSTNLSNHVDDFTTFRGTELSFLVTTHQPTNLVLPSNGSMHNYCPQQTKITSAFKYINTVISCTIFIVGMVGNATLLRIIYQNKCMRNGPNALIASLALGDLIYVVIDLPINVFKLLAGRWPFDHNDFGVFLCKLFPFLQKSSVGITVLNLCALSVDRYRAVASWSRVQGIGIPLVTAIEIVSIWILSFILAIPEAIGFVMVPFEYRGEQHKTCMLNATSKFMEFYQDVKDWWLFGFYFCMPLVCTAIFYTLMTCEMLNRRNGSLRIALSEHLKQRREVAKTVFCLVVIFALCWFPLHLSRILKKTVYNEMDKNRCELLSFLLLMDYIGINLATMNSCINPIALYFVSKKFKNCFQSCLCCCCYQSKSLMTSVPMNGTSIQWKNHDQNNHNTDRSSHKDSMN

Work on `COc1ccc(C(=O)NCc2cc(C(C)C)no2)cc1OC1CCN(C)CC1` [ML352, N-((3-isopropylisoxazol-5-yl)methyl)-4-methoxy-3-((1-methylpiperidin-4-yl)oxy)benzamide] yielded an inhibition at 10 µM (Adenosine A2A) of 0%, a Kp at […] [1] of 0.2 and an inhibition at 10 µM (Endothelin ETA) of -3%. For the same compound, the solubility (PBS solubility) was 98.2 ± 1.1 µM (≈ 38.1 µg/mL), the inhibition at 10 µM (Sigma σ1) was -1% and the “% inhibition” value (Glutamate, NMDA, Agonism) was 1%.
